Test results published in patent US11091786B2, “Butelase-mediated peptide ligation” (Nanyang Technological University, priority 2015, dated 2021).
Values after ≈ are worked out from the molar mass of the structure shown. Bridge positions count the residues as written; N and C are the ends. Square brackets hold non-standard residues; d marks the D form. Peptide text beside a SMILES is read from it. I, II: the chains in the order shown. βAla = NCCC(=O)O

Tests used:
Assay type in all cases: cell-based
E. cloacae DM 09800 = conditions: DM 09800, 18 h
Procedure: (§1) The following protocol was applied to the radial diffusion assay.
(§2) 1. A single colony was picked and transferred into a 5 ml tube containing 2.5 ml TSB. The culture was shaken at 37° C. for 18 h.
(§3) 2. 50 μl of the stationary phase culture was diluted to 2.5 mL of autoclaved TSB (1:50 dilution) and shaken at 37° C. for another 3 h.
(§4) 3. This subculture was centrifuged at 5000 rpm for 5 min and the supernatant was discarded. The residual cells were washed with cold sterile 10 mM phosphate buffer, pH 7.4 and the buffer was discarded after centrifuge. 5 ml of the same buffer was added to resuspend the cells and its bacteria concentration was determined by measuring its optical density at 620 nm.
(§5) 4. 10 ml of antoclaved, molten underlay gel agar was transferred to a 15-ml eppendorf tube and mixed with 4×10^6 CFU of bacteria by vortexing. The mixture was then poured into a petri dish and gelled in less than […]. Wells were punched against the gel using a Pasteur pippette.
(§6) 5. Peptides to be tested were serially diluted and 3.5 μl of each sample was added to the well. The plates were incubated at 37° C. for 3 h with gel-side up.
(§7) 6. Next, each underlay gel was covered with 10 ml of overlay gel. After the gel solidified, the plates were turned gel-side up and incubated at 37° C. for overnight.
(§8) 7. The following morning, all the plates were taken out and the zone diameters were measured with ruler. All the samples were tested in duplicates and the results were averaged. The final minimum inhibition concentration (MIC) was determined using excel.
(§9) There is a growing interest to develop peptide-based antibiotics (Annu Rev Immunol. 1995, 13, 61-92; J Intern Med. 2003, 254, 197-215; Cent Eur J Biol 2007, 2, 1-33; Int J Pept Res Ther. 2010, 16, 199-213) because, compared with conventional antibiotics, they are less likely to develop drug resistance and have fewer side effects (J Med Chem. 2015, 58, 6533-6548; Biochemistry-Us. 2000, 39, 7159-7169; Eur J Biochem. 2000, 267, 3289-3300; Nucleic Acids Res. 2012, 40, W199-204). To apply the presently disclosed enzymatic method in preparing dendrimeric antimicrobials, inventors synthesized two antimicrobials 12 (bivalent) and 13 (tetravalent) (MS shown in supporting information) which harbored a tetrapeptide RLYR (SEQ ID NO:121) as the antibacterial sequence (Eur J Biochem. 2002, 269, 923-932) by ligating N-acetylated thiodepsipeptide 10 Ac-RLYRN-thioglc-V (SEQ ID NO:120) with dendron core 2 and 6 respectively. The RLYR (SEQ ID NO:121) tetrapeptide contains a BHHB motif (B=basic, H=hydrophobic) which is commonly found in certain potent and broad-spectrum β-stranded antimicrobial peptides (BioDrugs. 2013, 27, 479-493) such as PG (protegrins) (Febs Lett. 1993, 327, 231-236) and RTD-1 (rhesus monkey theta defensin) (Science. 1999, 286, 498-502). This consensus motif with positive charged and hydrophobic residues was successfully used as a dendrimeric antimicrobial in 2002 (Eur J Biochem. 2002, 269, 923-932). Such short peptide-based dendrimeric antimicrobials are broad-spectrum antibiotics and kill bacterial cells through electrostatic and hydrophobic interactions with the negatively charged microbial cytoplasmic membranes (Biochemistry-Us. 2009, 48, 5642-5657). Using a radial diffusion assay, inventors tested the antimicrobial activities against E. coli and S. aureus of these two dendrimeric peptides together with prototypical monomer 11 RLYR (SEQ ID NO:121), mono-, tri-lysine dendron core 2 and 6 for comparison. All assays were performed under a high-salt condition (100 mM NaCl) to simulate physiological conditions. […] The tetravalent dendrimeric structure 13 had further improved antimicrobial activities with MICs<3 μM against both strains. When testing 13 against several drug-resistant strains under high-salt condition, the tetramer construct was broadly active against all six tested strains with MICs ranging from 0.87 to 4.8 μM. […]

K. species DR 13779 = conditions: 18 h
Procedure: as §1, §2, §3, §4, §5, §6, §7, §8, §9

S. aureus DB 14329 = conditions: DB 14329, 18 h
Procedure: as §1, §2, §3, §4, §5, §6, §7, §8, §9

E. coli DU 09777 = conditions: DU 09777, 18 h
Procedure: as §1, §2, §3, §4, §5, §6, §7, §8, §9

P. aeruginosa DM 14158 = conditions: DM 14158, 18 h
Procedure: as §1, §2, §3, §4, §5, §6, §7, §8, §9

drug-resistant strains = tested on: drug-resistant strains
Procedure: as §1, §2, §3, §4, §5, §6, §7, §8, §9

E. coli DM 04604 = conditions: DM 04604, 18 h
Procedure: as §1, §2, §3, §4, §5, §6, §7, §8, §9

Compound: CC[C@H](C)[C@H](NC(=O)[C@H](CCCNC(=N)N)NC(=O)[C@H](CC(N)=O)NC(=O)[C@H](CCCNC(=N)N)NC(=O)[C@H](Cc1ccc(O)cc1)NC(=O)[C@H](CC(C)C)NC(=O)[C@H](CCCNC(=N)N)NC(C)=O)C(=O)NCCC(=O)NCCCC[C@H](NC(=O)CCNC(=O)[C@@H](NC(=O)[C@H](CCCNC(=N)N)NC(=O)[C@H](CC(N)=O)NC(=O)[C@H](CCCNC(=N)N)NC(=O)[C@H](Cc1ccc(O)cc1)NC(=O)[C@H](CC(C)C)NC(=O)[C@H](CCCNC(=N)N)NC(C)=O)[C@@H](C)CC)C(=O)NCCCC[C@H](NC(=O)[C@H](CCCCNC(=O)CCNC(=O)[C@@H](NC(=O)[C@H](CCCNC(=N)N)NC(=O)[C@H](CC(N)=O)NC(=O)[C@H](CCCNC(=N)N)NC(=O)[C@H](Cc1ccc(O)cc1)NC(=O)[C@H](CC(C)C)NC(=O)[C@H](CCCNC(=N)N)NC(C)=O)[C@@H](C)CC)NC(=O)CCNC(=O)[C@@H](NC(=O)[C@H](CCCNC(=N)N)NC(=O)[C@H](CC(N)=O)NC(=O)[C@H](CCCNC(=N)N)NC(=O)[C@H](Cc1ccc(O)cc1)NC(=O)[C@H](CC(C)C)NC(=O)[C@H](CCCNC(=N)N)NC(C)=O)[C@@H](C)CC)C(=O)N[C@@H](Cc1ccc(O)cc1)C(N)=O [Tetramer 13, (Ac-RLYRNRIβA)4K2KY] (I: Ac-RLYRNRI[βAla]KKY-NH2 / II: Ac-RLYRNRI[βAla]K / III: Ac-RLYRNRI[βAla] / IV: Ac-RLYRNRI[βAla]; amide I:9-IV:C, I:10-II:C, II:9-III:C)
- MIC (E. cloacae DM 09800): 0.9 µM (≈ 4.42 µg/mL)
- MIC (K. species DR 13779): 1.5 µM (≈ 7.36 µg/mL)
- MIC (S. aureus DB 14329): 4.8 µM (≈ 23.5 µg/mL)
- MIC (E. coli DU 09777): 2.2 µM (≈ 10.8 µg/mL)
- MIC (P. aeruginosa DM 14158): 2.3 µM (≈ 11.3 µg/mL)
- MICs, broad-spectrum (drug-resistant strains; all strains tested, including several drug-resistant bacterial strains): < 5 µM
- MICs against all six tested drug-resistant strains (drug-resistant strains; six drug-resistant strains, high-salt condition): 0.87 to 4.8 µM
- MIC (E. coli DM 04604): 4.5 µM (≈ 22.1 µg/mL)
